Test results published in paper PMC7480398 (Phytomedicine, 2020).

Columns and labels:
Type in all cases: biochemical
CYP3A4 = CYP3A4 (Homo sapiens, UniProt P08684); assay: fluorescent probe substrate; settings: liver microsomes
PTGS1 = molecular target: T1, PTGS1 (Ovis aries, UniProt P05979); assay: colorimetric enzyme activity assay
T1 sequence (P05979 25-600): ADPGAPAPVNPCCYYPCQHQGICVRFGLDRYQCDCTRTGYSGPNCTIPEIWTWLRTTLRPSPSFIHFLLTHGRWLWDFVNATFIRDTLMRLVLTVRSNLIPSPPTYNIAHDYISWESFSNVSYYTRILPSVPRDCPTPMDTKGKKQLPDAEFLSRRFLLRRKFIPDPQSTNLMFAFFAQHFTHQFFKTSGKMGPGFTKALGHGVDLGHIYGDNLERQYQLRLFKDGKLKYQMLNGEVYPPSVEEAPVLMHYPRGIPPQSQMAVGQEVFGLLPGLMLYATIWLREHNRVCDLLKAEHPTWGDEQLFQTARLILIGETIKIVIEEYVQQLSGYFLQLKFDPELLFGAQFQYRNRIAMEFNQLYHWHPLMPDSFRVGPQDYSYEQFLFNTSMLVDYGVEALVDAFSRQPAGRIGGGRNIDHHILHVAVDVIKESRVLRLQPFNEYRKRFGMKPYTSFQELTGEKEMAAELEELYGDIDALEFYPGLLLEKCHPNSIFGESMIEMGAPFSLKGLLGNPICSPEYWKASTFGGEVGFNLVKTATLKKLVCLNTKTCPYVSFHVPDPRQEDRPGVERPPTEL

CYP1A1 = molecular target: T2, CYP1A1 (Homo sapiens, UniProt P04798)
T2 sequence (P04798 1-512): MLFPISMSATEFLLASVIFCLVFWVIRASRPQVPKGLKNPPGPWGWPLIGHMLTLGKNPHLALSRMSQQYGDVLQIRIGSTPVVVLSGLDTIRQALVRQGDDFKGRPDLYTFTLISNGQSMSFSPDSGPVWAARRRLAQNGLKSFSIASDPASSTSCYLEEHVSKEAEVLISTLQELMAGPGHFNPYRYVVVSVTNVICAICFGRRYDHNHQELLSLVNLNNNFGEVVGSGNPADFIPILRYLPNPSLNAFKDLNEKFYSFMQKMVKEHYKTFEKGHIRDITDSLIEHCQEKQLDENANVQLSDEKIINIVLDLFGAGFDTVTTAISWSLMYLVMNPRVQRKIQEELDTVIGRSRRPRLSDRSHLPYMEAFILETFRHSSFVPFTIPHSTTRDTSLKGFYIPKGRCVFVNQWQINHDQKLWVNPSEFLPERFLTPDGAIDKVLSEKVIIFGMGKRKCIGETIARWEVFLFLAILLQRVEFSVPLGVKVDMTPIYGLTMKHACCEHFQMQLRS

Sequence of CYP3A4 (P08684 2-503): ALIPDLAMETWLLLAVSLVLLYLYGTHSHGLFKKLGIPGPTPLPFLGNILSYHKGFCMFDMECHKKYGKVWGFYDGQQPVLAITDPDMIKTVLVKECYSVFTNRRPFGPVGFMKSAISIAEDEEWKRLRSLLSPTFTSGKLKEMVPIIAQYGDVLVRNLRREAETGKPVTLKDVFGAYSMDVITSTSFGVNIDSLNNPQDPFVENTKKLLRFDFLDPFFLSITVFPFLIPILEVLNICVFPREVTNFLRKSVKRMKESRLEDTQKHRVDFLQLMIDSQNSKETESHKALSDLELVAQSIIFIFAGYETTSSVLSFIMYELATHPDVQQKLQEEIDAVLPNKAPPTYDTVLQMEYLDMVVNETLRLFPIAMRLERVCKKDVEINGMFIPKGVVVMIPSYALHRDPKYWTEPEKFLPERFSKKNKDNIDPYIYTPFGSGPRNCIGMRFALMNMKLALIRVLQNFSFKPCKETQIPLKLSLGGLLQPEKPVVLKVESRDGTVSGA

For `CC(=O)O[C@@H](C[C@@H](C)C1=C2C[C@H](O)[C@H]3[C@@]4(C)CCC(=O)C(C)(C)[C@@H]4CC[C@]3(C)[C@@]2(C)CC1)[C@H]1OC1(C)C` [alisol B 23-acetate], the IC50 (CYP3A4) was 0.45 ± 0.03 µM.
For `O=C(O)[C@H]1O[C@@H](Oc2cc3oc(-c4ccccc4)cc(=O)c3c(O)c2O)[C@H](O)[C@@H](O)[C@@H]1O` [baicalin], the “colorimetric enzyme activity assay (590 nm)” value (PTGS1) was “Baicalin inhibited pure PTGS1 and AA induced platelet aggregation at the concentration as shown”.
With `O=c1c(O[C@@H]2O[C@H](CO)[C@H](O)[C@H](O)[C@H]2O)c(-c2ccc(O)c(O)c2)oc2cc(O)cc(O)c12` [hyperoside] the IC50 (CYP1A1) was 105 ± 18.9 µM.
